PMC8840040, “Pharmacokinetic Characterization of the DDAH1 Inhibitors ZST316 and ZST152 in Mice Using a HPLC-MS/MS Method” (Molecules, 2022)

Experiment: Urinary metabolites in 24 h urine by HPLC-MS/MS
Assay type: in vivo, FVB mice
Experimental: The assessment of the urinary elimination after oral and intravenous administration, in the urine fraction collected 24 h post dose, is reported in Table 6. […] To further investigate this issue, we searched for the presence of urinary metabolites in the 24 h urine samples in one mouse per treatment group. We identified at least eight molecules most likely originating from the parent compounds (Table 7; see Supplementary Figure S1 for the hypothesized structures).
Mice were treated with ZST316 and ZST152 using a dose of 60 mg/Kg (oral gavage) and 30 mg/Kg (intravenous bolus). For pharmacokinetic sampling, blood was collected at 15 and 30 min, and 1, 3, 8, and 24 h post dose. Three mice were analyzed per each time point. After the animals were anesthetized with isoflurane, the blood was drained from the retro-orbital plexus into heparinized tubes, and then centrifuged for 10 min at 4000× g at 4 °C to separate plasma. A 24-h urine fraction was collected in three mice for each drug and route of administration. Plasma and urine samples were stored at −20 °C until analysis by HPLC-MS/MS.
[…] chromatography was performed using a series 200 HPLC system (Perkin Elmer, Waltham, MA, USA) under gradient conditions with separation on a HILIC column, 3 µm, 100 A, 2.1 × 150 mm (Waters, Milford, MA, USA), coupled with a 3 µm, 3.9 × 5.0 mm guard column of the same material at the flow rate of 0.2 mL/min. Gradient features: 10% mobile phase (MP) A (NH4HCO2 10 mM, 10% CH3CN, 0.1% HCOOH) and 90% MP B (CH3CN, 0.1% HCOOH) as the initial constant condition; then to 90% MP A in 6 min and the constant condition for 1.5 min. Return to the start condition in 0.5 min and conditioning for 5.5 min. Total run time: 13.5 min. Mass spectrometric detection was performed using an API 4000 triple quadrupole mass spectrometer (SCIEX, Framingham, MA, USA) supplied with a Turbo Ion Spray source set at 350 °C and −4200 V, analyzing biological samples with electrospray ionization (ESI) operating in negative ion mode. Purified air was used as nebulizer gas (Gas 1) and heater gas (Gas 2) and N2 was used as curtain gas and collision activated dissociation gas. They were set to 40, 50, 20, and 4 instrument units (psi), respectively. The declustering potential (DP) was set at −119 V and the collision exit potential (CXP) at –10 V. All parameters of the source were defined by direct infusion of ZST316 and ZST152 1 µg/mL in mobile phase B. The final quantification was carried out in Selected Reaction Monitoring (SRM) with the following transitions: m/z 307.9 → 208.0 (collision energy of −29.5 eV) for ZST316 and m/z 271.9 → 170.9 (collision energy −24.7 eV) for ZST152 (Figure 2 and Figure 3). Data were processed with the software package Analyst 1.6.2 (AB SCIEX).

[1] = after intravenous ZST152, total dose 1.410 mg, mouse #1, 24 h urine
[2] = after intravenous ZST316, total dose 1.326 mg, mouse #1, 24 h urine
[3] = after oral ZST152, total dose 1.158 mg, mouse #3, 24 h urine
[4] = after oral ZST316, total dose 1.308 mg, mouse #3, 24 h urine

Row | % of Dose recovered in urine [1] [%] | Amount Recovered in urine [1] [µg] | % of Dose recovered in urine [2] [%] | Amount Recovered in urine [2] [µg] | % of Dose recovered in urine [3] [%] | Amount Recovered in urine [3] [µg] | % of Dose recovered in urine [4] [%] | Amount Recovered in urine [4] [µg] | SMILES
1 | 0.13 | 1.77 | 6.5 | 86.1 | 0.22 | 2.58 | 76 | 991 | COCCNC(=N)NCCC[C@H](N)C(=O)O [M7]
2 | – | – | 0.37 | 4.87 | – | – | 4.1 | 53.4 | COCCNC(=N)NCCC[C@H](O)C(=O)O [M8]
3 | – | – | 0.32 | 4.28 | – | – | 5.4 | 71.0 | COCCNC(=N)NCCC[C@H](O)C(=O)NC(C)=O [M9]

Continued, molecule first:

Row | SMILES | % of Dose recovered in urine [1] [%] | Amount Recovered in urine [1] [µg] | % of Dose recovered in urine [2] [%] | Amount Recovered in urine [2] [µg] | % of Dose recovered in urine [3] [%] | Amount Recovered in urine [3] [µg] | % of Dose recovered in urine [4] [%] | Amount Recovered in urine [4] [µg]
4 | COCCNC(=N)N [M1] | 0.039 | 0.55 | 0.017 | 0.23 | 0.088 | 1.02 | 0.21 | 2.74
5 | COCCNC(=N)NCCCC=O [M2] | 9.05 | 128 | – | – | 0.023 | 0.27 | – | –
6 | COCCNC(=N)NCCCCO [M3] | 0.19 | 2.62 | – | – | 4.2 | 49.1 | – | –
7 | COCCNC(=N)NCCCC(=O)O [M4] | 6.6 | 93.3 | 0.66 | 8.71 | 7.6 | 87.8 | 8.2 | 108
8 | COCCNC(=N)NCCC[C@H](N)C=NO [M6] | 0.10 | 1.48 | – | – | 0.014 | 0.16 | – | –
